From paper PMC9011347, “Small-Molecule Inhibitors Targeting Lipolysis in Human Adipocytes” (Journal of the American Chemical Society, 2022)
Values joined by “and” are separate entries in the source; they are usually repeats but may differ in a detail not shown here. Equal entries are not always repeated. Where two headings read alike, the source gives them in different places.

What was measured:
Test in all cases: TAG hydrolase assay, chimeric ATGL variants
[1] = biological target: T1, c9 (mouse ATGL with humanized T101, C106, R109, N111, S133) (Mus musculus, UniProt Q8BJ56, C106S/N111S/R109H/S133N/T101V); type: biochemical, human and mouse; settings: variant c9, NG-497 (10 μM) or Atglistatin (10 μM)
T1 construct: host or cells: Expi293 cells, cell lysate
T1 sequence (Q8BJ56 1-288 T101V/C106S/R109H/N111S/S133N limits assumed): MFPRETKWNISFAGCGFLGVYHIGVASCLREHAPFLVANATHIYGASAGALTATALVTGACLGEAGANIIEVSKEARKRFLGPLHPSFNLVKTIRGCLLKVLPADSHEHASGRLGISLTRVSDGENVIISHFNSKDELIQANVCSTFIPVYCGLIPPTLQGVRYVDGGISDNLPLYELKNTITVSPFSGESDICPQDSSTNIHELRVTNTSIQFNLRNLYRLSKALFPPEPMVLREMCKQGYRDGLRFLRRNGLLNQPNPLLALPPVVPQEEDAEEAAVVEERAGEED
Procedure: (§1) Figure 5 Analysis of chimeric proteins comprising human and mouse ATGL. (a) Schematic view of the minimal active domain of wild-type and chimeric ATGL variants (c1–c9). Nonidentical aa are indicated in blue and red for mouse and human ATGL, respectively. ATGL variants were expressed in Expi293 cells and TAG hydrolase activity was determined in cell lysates in the presence or absence of NG-497 (10 μM) and Atglistatin (10 μM), respectively. Inhibition of ATGL variants by respective inhibitors (tick mark) and lack of inhibition (cross) is indicated at the right edge. The expression of all ATGL variants was confirmed by Western blotting analysis (Figure S6). (b) Dose-dependent inhibition of human ATGL (aa 1–288) and c1 (human aa 1–158 and mouse aa 159–288) by NG-497. (c) Dose-dependent inhibition of mouse ATGL (aa 1–288) and c2 (mouse aa 1–158 and human aa 159–288) by Ai. IC50 values are shown in the insets. Data are presented as relative inhibition of respective DMSO controls and are indicated as mean ± SD. (d) 3D homology model of the minimal active domain of mouse ATGL (M1–L254) depicted as a cartoon. Residues 1–178 are in blue, and residues 179–254 are in gray. […]
Expression of recombinant ATGL constructs and preparation of cell lysates. […] Protein concentrations were determined using Bio-Rad protein assay (Bio-Rad 785, Bio-Rad Laboratories, Munich, Germany) using BSA as standard. […]

[2] = biological target: T2, c1 (human aa 1–158 and mouse aa 159–288) (Homo sapiens, UniProt Q96AD5, L232M/Q250R/R257Q); type: biochemical; settings: chimeric variant c1
T2 construct: c1 (human aa 1–158 and mouse aa 159–288); host or cells: Expi293 cells, crude lysate
T2 sequence (Q96AD5 with tags, fused parts or gaps L232M/Q250R/R257Q): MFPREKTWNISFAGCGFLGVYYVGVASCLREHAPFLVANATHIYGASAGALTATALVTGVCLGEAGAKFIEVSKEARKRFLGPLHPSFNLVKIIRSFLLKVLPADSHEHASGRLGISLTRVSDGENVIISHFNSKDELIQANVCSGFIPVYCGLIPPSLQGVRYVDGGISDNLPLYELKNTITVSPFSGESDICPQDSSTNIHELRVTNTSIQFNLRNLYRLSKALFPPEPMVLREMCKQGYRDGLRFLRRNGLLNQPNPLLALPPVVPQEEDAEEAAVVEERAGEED
Excerpt: (§2) Since experimental three-dimensional (3D) structures for ATGL are currently not available, we utilized chimeric variants of mouse and human ATGL for the identification of binding sites. The constructs c1–c9 (Figure 5a) comprised the N-terminal […] of ATGL, which are sufficient to retain enzymatic activity.[50] In variants c1 and c2, exchange of the N-terminal 158 aa between human and mouse ATGL switched inhibitor reactivity.
as §1, with “gray. S47 and D166 comprising the active site are represented as green sticks. T101, C106, R109, N111, and S133 are colored in orange, A60, N68, I69, T93, C97, and T146 are colored in magenta. TEXT PRINTED IN THE PICTURE: (b) NG-497: IC50 [μM] (human): 1.3±0.1; IC50 [μM] (c1): 1.3±0.1 | (b) Ai: IC50 [μM] (human): n.det.; IC50 [μM] (c1): n.det. | (c) NG-497: IC50 [μM] (mouse): n.det.; IC50 [μM] (c2): n.det. | (c) Ai: IC50 [μM] (mouse): 2.5±0.3; IC50 [μM] (c2): 2.4±0.1” for “gray.”
(§3) Experimental details, materials, and methods
(§4) Expression of recombinant ATGL constructs and preparation of cell lysates. Expi293 cells were cultivated in Expi293 Expression Medium (GIBCO, Thermo Fisher Scientific, Waltham, USA) at standard conditions (37°C, 5% CO2, 95% humidified atmosphere, 125 rpm). DNA constructs containing ATGL from different species and chimeric ATGL variants in pcDNA3.1(+)myc-His C Vector were obtained from BioCat GmbH (Heidelberg, Germany). […] Protein concentrations were determined using Bio-Rad protein assay (Bio-Rad 785, Bio-Rad Laboratories, Munich, Germany) using BSA as standard. […]

[3] = biological target: T3, c2 (mouse aa 1–158 and human aa 159–288) (Mus musculus, UniProt Q8BJ56, M232L/Q257R/R250Q); type: biochemical; settings: chimeric variant c2
T3 construct: host or cells: Expi293 cells, cell lysate
T3 sequence (Q8BJ56 with tags, fused parts or gaps M232L/R250Q/Q257R): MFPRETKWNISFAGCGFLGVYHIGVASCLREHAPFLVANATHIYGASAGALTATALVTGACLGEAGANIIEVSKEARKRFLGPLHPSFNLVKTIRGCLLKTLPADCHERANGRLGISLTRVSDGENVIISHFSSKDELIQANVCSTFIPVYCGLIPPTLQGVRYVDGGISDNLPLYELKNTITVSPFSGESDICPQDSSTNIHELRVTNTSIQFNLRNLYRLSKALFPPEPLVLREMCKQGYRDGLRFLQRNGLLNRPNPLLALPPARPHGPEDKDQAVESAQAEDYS
Excerpt: as §2
as §1, with “gray. S47 and D166 comprising the active site are represented as green sticks. T101, C106, R109, N111, and S133 are colored in orange, A60, N68, I69, T93, C97, and T146 are colored in magenta. TEXT PRINTED IN THE PICTURE: (b) NG-497: IC50 [μM] (human): 1.3±0.1; IC50 [μM] (c1): 1.3±0.1 | (b) Ai: IC50 [μM] (human): n.det.; IC50 [μM] (c1): n.det. | (c) NG-497: IC50 [μM] (mouse): n.det.; IC50 [μM] (c2): n.det. | (c) Ai: IC50 [μM] (mouse): 2.5±0.3; IC50 [μM] (c2): 2.4±0.1” for “gray.”
as §3, §4

| SMILES | inhibition of TAG hydrolase activity [1] | IC50 [2] | IC50 ([3]; read-out: IC50) | IC50 ([2]; read-out: IC50) | IC50 [3] |
| --- | --- | --- | --- | --- | --- |
| CN(C)C(=O)Nc1cccc(-c2ccc(N(C)C)cc2)c1 [Atglistatin, reference compound] | preserved Ai binding | ineffective | ~2500 nM and 2400 nM |  |  |
| CCOc1ccc(-c2cc(OC)cc(C(=O)OC(C)C)n2)cc1 [NG-497] | ineffective |  |  | 1300 nM | ineffective |
